As a reminder, the chromatographic logP is a lipophilicity value derived from retention on a column.

Consider 30 compounds from patent US7250521B2, “Method for production of Δ1-pyrrolines” (Bayer CropScience Aktiengesellschaft, priority 2001, dated 2007).

This series can be described thus: logP determination by HPLC on reverse-phase column (C 18), EEC directive 79/831 Annex V.A8. Type of series: physicochemical. The protocol: In the acidic range, the determination is carried out at pH 2.3 using the mobile phases 0.1% aqueous phosphoric acid and acetonitrile; linear gradient from 10% acetonitrile to 90% acetonitrile.
In the neutral range, the determination is carried out at pH 7.5 using the mobile phases 0.01 molar aqueous phosphate buffer solution and acetonitrile; linear gradient from 10% acetonitrile to 90% acetonitrile.

[1] abbreviates: reverse-phase HPLC column (C 18), pH 2.3, acidic range, pH 2.3; 0.1% aqueous phosphoric acid/acetonitrile gradient; 43° C.; values marked a).
The mark [2] stands for this setting: reverse-phase HPLC column (C 18), pH 7.5, neutral range, pH 7.5; 0.01 molar aqueous phosphate buffer/acetonitrile gradient; 43° C.; values marked b).

`Cc1ccccc1C1=NC(c2ccc(F)cc2)CC1` (stereo not shown) [Example 31]: under setting [1], the chromatographic logP is 1.41. In the case of `Fc1ccccc1C1=NC(c2ccc(OC(F)(F)F)cc2)CC1` (stereo not shown) [Example 68], under setting [2], the chromatographic logP was determined as 4.41. In turn, `CC(C)(C)OC(=O)N1C(=O)CCC1c1ccc(-c2ccc(SC(F)(F)F)cc2)cc1` (stereo not shown) [III-3] gave a chromatographic logP under setting [1] of 4.67. `CC(C)(C)OC(=O)N1C(=O)CCC1c1ccc(F)cc1F` (stereo not shown) [III-16] yielded a chromatographic logP under setting [1] of 2.69.

On to `CC(C)c1ccc(C2CCC(c3ccccc3Cl)=N2)cc1` (stereo not shown) [Example 21], for which the chromatographic logP under setting [1] was 2.74. In the case of `Cc1ccc(C2CCC(c3ccccc3Cl)=N2)cc1Cl` (stereo not shown) [Example 54], the chromatographic logP stood at 2.98 under setting [1] and 4.67 under setting [2]. In the same order, the values of `Cc1ccc(C2CCC(c3ccccc3Cl)=N2)c(C)c1` (stereo not shown) [Example 71] are 2.82 and 4.45. With `CC(C)(C)OC(=O)N1C(=O)C(C(=O)c2ccc(Cl)c(Cl)c2)CC1c1ccccc1` (stereo not shown) [II-6], the chromatographic logP under setting [2] turned out to be 4.6. As for `Fc1cccc(F)c1C1=NC(c2ccc(-c3ccc(Br)cc3)cc2)CC1` (stereo not shown) [Example 113], the chromatographic logP under setting [1] was 3.98. Same read-out and setting: under `Fc1ccccc1C1=NC(c2ccc(Br)cc2)CC1` (stereo not shown) [Example 97] stands 1.83; under `O=C1CCC(c2ccc(Cl)c(Cl)c2)N1` (stereo not shown) [Example V-10], 1.92; under `Fc1cccc(F)c1C1=NC(c2ccc(OCc3ccc(C(F)(F)F)cc3)cc2)CC1` (stereo not shown) [Example 108], 3.41. As for `COc1ccc(C2CCC(c3ccccc3Cl)=N2)cc1F` (stereo not shown) [Example 40], the chromatographic logP under setting [1] was 1.97 and the chromatographic logP under setting [2] was determined as 3.52. Under setting [1], `CC(C)Oc1ccc(-c2ccc(C3CCC(=O)N3)cc2)cc1` (stereo not shown) [Example V-21] displayed a chromatographic logP of 2.77. On to `CCOc1cc(C(C)(C)C)ccc1C1CCC(c2ccccc2Br)=N1` (stereo not shown) [Example 57], for which the chromatographic logP is, setting by setting: under setting [1], 3.31; under setting [2], 5.8. For `Clc1ccc(C2CCC(c3ccccc3Br)=N2)cc1` (stereo not shown) [Example 83] the same measures were 2.96 and 4.22. `Cc1ccc(C2CCC(=O)N2C(=O)OC(C)(C)C)c(C)c1` (stereo not shown) [III-17] registered a chromatographic logP under setting [1] of 3.2. Compound `O=C1CCC(c2ccc(F)cc2)N1` (stereo not shown) [Example V-17] showed a chromatographic logP under setting [1] of 1.32.

For `Fc1cccc(F)c1C1=NC(c2ccc(C3CCCCC3)cc2)CC1` (stereo not shown) [Example 78], the chromatographic logP by setting is: under setting [1], 3.84; under setting [2], 5.56. Take `CC(C)(C)OC(=O)N1C(=O)CCC1c1ccc(Cl)cc1Cl` (stereo not shown) [III-10]: under setting [1], the chromatographic logP was determined as 3.54. In the case of `Fc1ccc(C2CCC(c3ccccc3)=N2)cc1` (stereo not shown) [Example 32], the chromatographic logP was found to be 1.12 under setting [1] and 3.34 under setting [2]. For `Clc1ccc(C2CCC(c3ccccc3Cl)=N2)cc1Cl` (stereo not shown) [Example 45] the same measures were 3.83 and 4.75.

With `FC(F)(F)Oc1ccc(C2=NC(c3ccccc3)CC2)cc1` (stereo not shown) [Example 66], the chromatographic logP runs as follows: under setting [1], 2.02; under setting [2], 4.26. `Oc1ccc(C2CCC(c3c(F)cccc3F)=N2)cc1` (stereo not shown) [Example 106] yielded a chromatographic logP under setting [1] of 0.91. `Fc1ccc(C2CCC(c3c(Cl)cccc3Cl)=N2)cc1` (stereo not shown) [Example 37]: the chromatographic logP worked out at 3.78 under setting [1] and 3.95 under setting [2]. In turn, `CC(C)(C)OC(=O)N1C(=O)CCC1c1ccc(CCc2ccccc2)cc1` (stereo not shown) [III-19] gave a chromatographic logP under setting [1] of 4.11. `CC(C)(C)OC(=O)N1C(=O)CCC1c1ccc(Cl)cc1` (stereo not shown) [III-13]: under setting [1], the chromatographic logP amounted to 2.93.

Under setting [1], `CC(C)(C)OC(=O)N1C(=O)CCC1c1ccc(Cl)c(Cl)c1` (stereo not shown) [III-11] registered a chromatographic logP of 3.29. Same read-out and setting: the figure for `Clc1ccccc1C1=NC(c2cccc(Br)c2)CC1` (stereo not shown) [Example 15] is 2.99. For `Cc1ccccc1C(=O)C1CC(c2ccc(C(C)C)cc2)N(C(=O)OC(C)(C)C)C1=O` (stereo not shown) [II-5], the chromatographic logP under setting [2] turned out to be 5.05.
